Legend:
[1] = system: Activin receptor-like kinase; details: Table I, cited from earlier work; for Function: reported function in words; for Target: target profile in words
[2] = system: ALK1, ALK2, BMPR1A, ALK4, TGFBR1, BMPR1B, and ALK7; details: in words; cited from earlier work
[3] = system: ALK1, ALK2, ALK3 and ALK6; details: in words; cited from earlier work
[4] = system: SMAD phosphorylation in CD4+ T cells; test: Western blot analysis of SMAD phosphorylation in CD4+ T cells; assay type: cell-based
Description: Since Activins have been reported to promote SMAD signaling in non-T cells (14), it was tested whether Activins signaling in T cells could have a similar effect. SMAD activity was assessed by western blot analysis of SMAD phosphorylation.

naive CD4+ T cells = test: Foxp3 induction / Treg generation from naive CD4+ T cells; assay type: cell-based; details: for Foxp3 induction (Foxp3+ cells): single agent, TGF-β at suboptimal concentration, Activin A in the absence of TGF-β
Description: Since […] mediated events are important during the up-regulation of Foxp3 and the generation of Tregs from naive CD4+ T cell precursors, it was investigated whether Activin A can drive the process. Without TGF-β, as expected, Foxp3 induction was minimal.

[5] = single agent, Activin A 5 or 10 ng/ml, TGF-β 0.5 or 2 ng/ml

**Q.** What does the source list for `Cc1cccc(-c2nn3c(c2-c2ccnc4ccc(C(N)=O)cc24)CCC3)n1` (atropisomer, axis not shown) [LY-2157299]?
**A.** Function [1]: LY-2157299 is now under phase II clinical studies of its anti- carcinoma activities against glioblastoma and hepatocellular carcinoma, and has also been reported that it inhibits the tumor growth in human lung anaplastic carcinoma cells and breast carcinoma cells.; Target [1]: ALK4, 5, 7

**Q.** For `c1ccc(-c2nc3c(c(-n4ccc5cnccc54)n2)CCC3)nc1` [AZ12601011], which targets [2] is on record?
**A.** targets ALK4 and ALK7 as well as TGFBR1

**Q.** Which “inhibition of ALK1, ALK2, ALK3 and ALK6” value [3] does the source give for `Cc1cccc(-c2nn(C(=S)Nc3ccccc3)cc2-c2ccnc3ccccc23)n1` [Clone A-83-01, 3-(6-Methylpyridin-2-yl)-N-phenyl-4-(quinolin-4-yl)-1H-pyrazole-1-carbothioamide] here?
**A.** weak inhibitor

**Q.** What about the Function [1] of the same molecule?
**A.** A-83-01 can inhibit the activities of ALK4, 5 and 7. For other ALK receptors such as ALK1, 2, 3 and 6, A-83-01 showed weak inhibition. A-83- 01 was proved to reduce EMT.

**Q.** What about the Target [1] of the same molecule?
**A.** Selective inhibitor for ALK4, 5 and 7, and weak effect on ALK1, 2, 3 and 6

**Q.** For `c1ccc(-c2cc(-c3c[nH]nc3-c3ccccn3)ccn2)cc1` [GW-6604], which Function [1] is on record?
**A.** GW-6604 can prevent matrix deposition and promote hepatocyte regeneration as anti-cancer drug development.

**Q.** And the Target [1]?
**A.** ALK4, 5, 7

**Q.** With `Cc1cccc(-c2[nH]c(C(C)(C)C)nc2-c2ccc3c(c2)OCO3)n1` [SB-505124] as the molecule, how does the Target [1] read?
**A.** ALK4, 5, 7

**Q.** With `Cc1cccc(-c2[nH]c(C(C)(C)C)nc2-c2ccc3nccnc3c2)n1` [SB-525334] as the molecule, how does the Function [1] read?
**A.** SB-525334 has been demonstrated to block phosphorylation and Smad2/3 nuclear translocation, and inhibits renal fibrosis by reducing procollagen and PAI-1 expression.

**Q.** And the Target [1]?
**A.** ALK4, 5, 7

**Q.** For `Fc1ccc(Cl)cc1-c1nc(Nc2ccncc2)c2nccnc2n1` [SD-208], which Function [1] is on record?
**A.** SD-208 inhibits growth and invasiveness and enhances immunogenicity of murine and human glioma cells.

**Q.** And the Target [1]?
**A.** ALK4, 5, 7

**Q.** Which “SMAD phosphorylation (phospho-SMAD)” value [4, 5] does the source give for “TGF-β: cytokine, inducer of Foxp3 expression and SMAD signaling” here?
**A.** induced SMAD phosphorylation

**Q.** And the “Foxp3 induction (Foxp3+ cells)” value (naive CD4+ T cells)?
**A.** modest up-regulation of Foxp3

B1: Activin A: dimeric member of the TGF-β Superfamily; two Activin βA subunits (protein, UniProt P08476 311-426, looked up)
Inhibin beta A chain: GLECDGKVNICCKKQFFVSFKDIGWNDWIIAPSGYHANYCEGECPSHIAGTSGSSLSFHSTVINHYRMRGHSPFANLKSCCVPTKLRPMSMLYYDDGQNIIKKDIQNMIVEECGCS
modifications: homodimer
**Q.** For B1, which “SMAD phosphorylation (phospho-SMAD)” value ([4]; combined Activin A and TGF-β treatment) is on record?
**A.** even further activation of the SMAD signaling pathway

**Q.** And the “SMAD phosphorylation (phospho-SMAD)” value [4, 5]?
**A.** elevation of phospho-SMAD

**Q.** What about the “Foxp3+ T cell induction” value (naive CD4+ T cells; combined treatment with Activin and TGF-β) of the same molecule?
**A.** synergistic promotion of Foxp3+ T cell induction

**Q.** And the “Foxp3 induction (Foxp3+ cells)” value (naive CD4+ T cells)?
**A.** comparable population of Foxp3+ cells

— patent US20250154266A1, “ACTIVIN SIGNALING ACTIVITY” (The Johns Hopkins University, priority 2022, published 2025)
